Key:
[1] = target: T1, human SGLT1 (Homo sapiens, UniProt P13866); test: SGLT1 in vitro assay: Na-dependent 14C-AMG uptake in CHO-K1 cells stably expressing human SGLT1; type: cell-based; details: CHO-K1 cells stably expressing human SGLT1, 14C-AMG uptake; for inhibition at 0.3 µM: read-out: SGLT1 % Inh @ 0.3 μM; for IC50: compounds of formula (I) where R0 is fluoro
T1 construct: expressed in transfected cells
T1 sequence (P13866 1-664): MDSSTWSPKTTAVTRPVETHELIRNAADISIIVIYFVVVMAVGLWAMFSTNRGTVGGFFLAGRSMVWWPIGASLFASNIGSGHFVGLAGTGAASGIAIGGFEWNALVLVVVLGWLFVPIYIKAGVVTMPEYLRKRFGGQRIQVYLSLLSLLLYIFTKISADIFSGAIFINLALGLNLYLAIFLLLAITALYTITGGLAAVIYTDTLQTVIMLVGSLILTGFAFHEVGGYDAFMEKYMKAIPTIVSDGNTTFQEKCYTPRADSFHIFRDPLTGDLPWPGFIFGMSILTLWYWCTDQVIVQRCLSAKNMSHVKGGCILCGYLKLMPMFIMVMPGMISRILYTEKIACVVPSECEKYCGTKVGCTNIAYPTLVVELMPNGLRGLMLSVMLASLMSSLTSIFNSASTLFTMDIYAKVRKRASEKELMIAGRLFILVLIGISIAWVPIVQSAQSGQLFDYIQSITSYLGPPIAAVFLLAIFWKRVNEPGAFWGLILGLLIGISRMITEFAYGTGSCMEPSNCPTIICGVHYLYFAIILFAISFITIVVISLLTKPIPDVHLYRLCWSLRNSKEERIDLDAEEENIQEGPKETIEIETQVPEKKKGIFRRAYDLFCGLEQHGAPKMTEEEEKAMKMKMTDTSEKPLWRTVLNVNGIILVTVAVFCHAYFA
Description: (§1) Biological Example 1: SGLT1 and SGLT2 In Vitro Assays
(§2) The ability of the compounds of formula (I) of the present invention to treat an SGLT-mediated condition was determined using the following procedures:
(§3) SGLT1 and SGLT2 were cloned in form of cDNA from human small intestine (Genbank M24847), and from human kidney (Genbank M95549), respectively. Subsequently, each full cDNA was subcloned into pcDNA with each construct's integrity verified through follow-on sequencing. To generate CHO-K1 cells that stably express human SGLT1 or human SGLT2, CHO-K1 cells were transfected using DMRIE-C reagent (Life Technologies, Gaithersburg, Md.). Transfected cells were then selected in the presence of 500 μg/ml of the Geneticin (G418 Cellgro Catalog No. 30234-CI)
(§4) Individual clones were then characterized using the following cell-based assay for sodium-dependent glucose transport:
(§5) Inhibition of SGLT1 and SGLT2 activity was assessed in CHO K1 cells stably expressing either human SGLT1 or SGLT2, using the SGLT specific glucose analog methyl-glucopyranoside (Sigma Catalog No. M-9376). Cells were plated (45,000 cells/well) in white wall 96-well plates (COSTAR, Cat #3903) for 24 hours in growth medium, then a final concentration of 10 mM Na-Butyrate (ALDRICH Cat #30341-0) was added. The cells were incubated for 24 hours. On the day of the assay, cells were rinsed and treated with test compounds (at concentrations of 0.001 μM to 10 μM) in assay buffer (50 mM HEPES, 20 mM Tris base, 5 mM KCl, 1 mM MgCl2, 1 mM CaCl2 and 137 mM NaCl, pH 7.4) for 10 minutes. Cells were then incubated with ^14C-a-methyl-d-glucopyranoside (AMG, Amersham Catalog No. CFB 76), using 0.07 μCi per well in 500 µM AMG final concentration. The cells were incubated for 2 hours at 37° C. with 5% CO2 and washed two times with ice-cold Phosphate Buffer Solution (CELLGRO Catalog No. 21030-CV). The cells were then solubilized by adding 60 μl of MICROSCINT™ 20 and the Na-dependent ^14C-AMG uptake was quantified by measuring radioactivity. Plates were counted in a TopCount (Packard, Meriden, Conn.)
(§6) Representative compounds of the present invention were tested according to the procedures as described in Biological Example 1 and 2 above, with results as listed in Table 5, below. Results are reported as the %-inhibition or IC50 value. Variability for the functional assay was typically within 20%.

[2] = target: T2, human SGLT2 (Homo sapiens, UniProt P31639); test: SGLT2 in vitro assay: Na-dependent 14C-AMG uptake in CHO-K1 cells stably expressing human SGLT2; type: cell-based; details: CHO-K1 cells stably expressing human SGLT2, 14C-AMG uptake; for inhibition at 0.3 µM: read-out: SGLT2 % Inh @ 0.3 μM; for IC50: compounds of formula (I) where R0 is fluoro
T2 construct: expressed in transfected cells
T2 sequence (P31639 1-672): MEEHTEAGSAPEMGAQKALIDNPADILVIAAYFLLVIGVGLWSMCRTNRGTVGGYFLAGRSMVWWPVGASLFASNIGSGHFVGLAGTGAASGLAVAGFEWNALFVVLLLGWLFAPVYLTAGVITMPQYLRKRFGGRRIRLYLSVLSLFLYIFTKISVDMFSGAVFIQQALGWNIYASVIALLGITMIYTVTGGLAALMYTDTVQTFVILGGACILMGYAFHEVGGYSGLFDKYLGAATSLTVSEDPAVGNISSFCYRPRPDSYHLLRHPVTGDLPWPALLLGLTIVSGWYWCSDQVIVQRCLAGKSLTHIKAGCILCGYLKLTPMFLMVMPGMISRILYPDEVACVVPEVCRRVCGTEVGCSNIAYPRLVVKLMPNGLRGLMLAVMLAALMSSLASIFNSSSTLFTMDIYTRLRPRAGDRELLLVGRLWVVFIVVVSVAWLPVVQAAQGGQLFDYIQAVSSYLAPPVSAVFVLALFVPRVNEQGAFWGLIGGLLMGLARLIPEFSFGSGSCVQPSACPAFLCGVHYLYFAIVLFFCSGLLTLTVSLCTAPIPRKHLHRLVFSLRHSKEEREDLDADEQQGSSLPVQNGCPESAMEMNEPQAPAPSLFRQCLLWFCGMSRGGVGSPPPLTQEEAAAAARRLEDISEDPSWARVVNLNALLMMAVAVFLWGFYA
Description: as §1, §2, §3, §4, §5, §6

Row | SMILES | inhibition at 0.3 µM [1] [%] | inhibition at 0.3 µM [2] [%] | IC50 [1] [µM] | IC50 [2] [µM] | SGLT1 % Inh @ 0.3 μM [1] [%] | SGLT2 % Inh @ 0.3 μM [2] [%]
1 | COc1cc(OC)c([C@@H]2O[C@H](CO)C(F)(F)[C@H](O)[C@H]2O)cc1Cc1ccc2c(c1)OCCO2 [Compound 55, (2S,3R,4R,6R)-2-[5-(2,3-dihydro-1,4-benzodioxin-6-ylmethyl)-2,4-dimethoxy-phenyl]-5,5-difluoro-6-(hydroxymethyl)tetrahydropyran-3,4-diol] | 15.8 | 84.2 |  |  |  | 
2 | Cc1cc(O)c([C@@H]2O[C@H](CO)C(F)(F)[C@H](O)[C@H]2O)cc1Cc1ccc2c(c1)OCCO2 [Compound 56, (2S,3R,4R,6R)-2-(5-((2,3-dihydrobenzo[b][1,4]dioxin-6-yl)methyl)-2-hydroxy-4-methylphenyl)-5,5-difluoro-6-(hydroxymethyl)tetrahydro-2H-pyran-3,4-diol] | 78.3 | 93 | 0.065 | 0.002 |  | 
3 | CCc1ccc(Cc2cc([C@@H]3O[C@H](CO)C(F)(F)[C@H](O)[C@H]3O)cc3c2OCC3)cc1 [Compound 58] |  |  |  |  | 36.8 | 81.9
4 | Cc1c(Cc2cc3ccccc3s2)cc([C@@H]2O[C@H](CO)C(F)(F)[C@H](O)[C@H]2O)c(O)c1C [Compound 60, (2S,3R,4R,6R)-2-(5-(benzo[b]thiophen-2-ylmethyl)-2-hydroxy-3,4-dimethylphenyl)-5,5-difluoro-6-(hydroxymethyl)tetrahydro-2H-pyran-3,4-diol] | 83.4 | 91.1 | 0.088 | 0.0122 |  | 
5 | COc1cc(O)c([C@@H]2O[C@H](CO)C(F)(F)[C@H](O)[C@H]2O)cc1Cc1ccc2c(c1)CCO2 [Compound 62, (2S,3R,4R,6R)-2-[5-(2,3-dihydrobenzofuran-5-ylmethyl)-2-hydroxy-4-methoxy-phenyl]-5,5-difluoro-6-(hydroxymethyl)tetrahydropyran-3,4-diol] | 40.9 | 79.6 | 0.708 | 0.0173 |  | 
6 | COC(=O)N1CCc2sc(Cc3cc([C@@H]4O[C@H](CO)C(F)(F)[C@H](O)[C@H]4O)c(O)cc3Cl)cc2C1 [Compound 64] |  |  |  |  | 6.2 | 67.1
7 | COC(=O)N1CCc2sc(Cc3cc([C@@H]4O[C@H](CO)C(F)(F)[C@H](O)[C@H]4O)c(OC)cc3Cl)cc2C1 [Compound 65] |  |  |  |  | 16.9 | 56.1
8 | Cc1cc(O)c([C@@H]2O[C@H](CO)C(F)(F)[C@H](O)[C@H]2O)cc1Cc1ccc(-c2ccc(F)cc2)s1 [Compound 68] |  |  |  |  | 26.6 | 69.5
9 | Cc1cc(O)c([C@@H]2O[C@H](CO)C(F)(F)[C@H](O)[C@H]2O)cc1Cc1cc2c(s1)CCN(C(=O)C1CCCC1)C2 [Compound 69] |  |  |  |  | 64.0 | 67.1
10 | Cc1cc(O)c([C@@H]2O[C@H](CO)C(F)(F)[C@H](O)[C@H]2O)cc1Cc1ccc(-c2cccc(F)n2)s1 [Compound 70] | 61.2 | 76.2 | 0.12 | 0.0027 |  | 
11 | Cc1cc(O)c([C@@H]2O[C@H](CO)C(F)(F)[C@H](O)[C@H]2O)cc1Cc1ccc(-c2cccc(F)c2)s1 [Compound 71] |  |  |  |  | 21.6 | 76.8
12 | CC(=O)N1CCc2sc(Cc3cc([C@@H]4O[C@H](CO)C(F)(F)[C@H](O)[C@H]4O)c(O)cc3Cl)cc2C1 [Compound 72] |  |  |  |  | 38.5 | 73.0
13 | COc1cc(Cl)c(Cc2cc3c(s2)CCN(C(C)=O)C3)cc1[C@@H]1O[C@H](CO)C(F)(F)[C@H](O)[C@H]1O [Compound 73] |  |  |  |  | 21.4 | 55.0
14 | COC(=O)N1CCc2sc(Cc3cc([C@@H]4O[C@H](CO)C(F)(F)[C@H](O)[C@H]4O)c(OC)cc3OC)cc2C1 [Compound 75] |  |  |  |  | 15.5 | 52.3
15 | COc1c([C@@H]2O[C@H](CO)C(F)(F)[C@H](O)[C@H]2O)cc(Cc2ccc3c(c2)OCCO3)c2c1CCO2 [Compound 76] | 44.3 | 84.4 | 0.302 | 0.005 |  | 
16 | COc1cc(OC)c([C@@H]2O[C@H](CO)C(F)(F)[C@H](O)[C@H]2O)cc1Cc1cc2c(s1)CCN(C(C)=O)C2 [Compound 77] |  |  |  |  | 22.6 | 51.4
17 | COc1cc(C)c(Cc2cc3c(s2)CCN(C(=O)N2CCCC2)C3)cc1[C@@H]1O[C@H](CO)C(F)(F)[C@H](O)[C@H]1O [Compound 78] |  |  |  |  | 28.0 | 71.5
18 | Cc1ccc([C@@H]2O[C@H](CO)C(F)(F)[C@H](O)[C@H]2O)cc1Cc1cc2c(s1)CCN(C(=O)c1nccs1)C2 [Compound 79] |  |  |  |  | 20.3 | 63.6
19 | Cc1cc(O)c([C@@H]2O[C@H](CO)C(F)(F)[C@H](O)[C@H]2O)cc1Cc1cc2c(s1)CCN(C(=O)c1nccs1)C2 [Compound 80] |  |  |  |  | 31.1 | 82.1
20 | Cc1cc(O)c([C@@H]2O[C@H](CO)C(F)(F)[C@H](O)[C@H]2O)cc1Cc1cc2c(s1)CCN(C#N)C2 [Compound 82] |  |  | 0.505 | 0.0055 | 50.3 | 85.4
21 | Cc1cnc(C(=O)N2CCc3sc(Cc4cc([C@@H]5O[C@H](CO)C(F)(F)[C@H](O)[C@H]5O)c(O)cc4C)cc3C2)s1 [Compound 83] | 43.3 | 85.4 | 0.449 | 0.0097 |  | 
22 | Cc1ccc([C@@H]2O[C@H](CO)C(F)(F)[C@H](O)[C@H]2O)cc1Cc1cc2c(s1)CCN(C(=O)C1CCCC1)C2 [Compound 84] |  |  |  |  | 28.5 | 54.4
23 | COc1ccc(Cc2ccc(O)c([C@@H]3O[C@H](CO)C(F)(F)[C@H](O)[C@H]3O)c2)cc1 [Compound 86] |  |  |  |  | 17.4 | 69.5

Reference: patent publication US20210238170A1, “5,5-Difluoro- and 5-Fluoro-5-Methyl-C-Glycoside Derivatives Useful As Dual SGLT1 / SGLT2 Modulators” (Janssen Pharmaceutica NV, priority 2018, published 2021)
